The results in this text go back to patent US4269834A, “Copper complexes of isoquinazolines” (priority 1977, dated 1981).

In this assay the test system is Mycoplasma gallisepticum. Kind of assay: Activity against Mycoplasma gallisepticum (minimum inhibiting concentration). The note with it: for MIC M. gall. with Cu: with Cu (50 μg/ml Cu^2+); for MIC: without added Cu; for MIC with Cu: media containing 50 μg/ml Cu^2+. The assay is classed as cell-based. The source says: The following tables show some activities--expressed as minimum inhibiting concentration (MIC)--of the prepared compounds against various micro-organisms. The compounds are identified by reference to the Example in which they are described. When more than one compound is mentioned in an Example, they are distinguished by a number between parentheses, corresponding to their order of occurrence, for instance: VI (2) refers to the second compound prepared according to Example VI. The term "with Cu" refers to tests conducted in media containing 50 μg/ml Cu^2+.
The activities of the following compounds, not mentioned in the Examples, were also measured.

[1] abbreviates: Mycoplasmoides gallisepticum, Table IVb, read-out: MIC M. gall.
Where [2] appears, read: Mycoplasmoides gallisepticum, Table I, read-out: MIC.

Values after ≈ are worked out from the molar mass of the structure shown. Where two headings read alike, the source gives them in different places. Where only a bound is given, the exact number is not on record here.

As for `c1ccc(-c2ncc3ccccc3n2)nc1` [B], the “MIC M. gall. with Cu” value (Table IVb) came to 0.5 µg/mL.

Regarding `Clc1ccc2nc(-c3ccccn3)ncc2c1` [C], the “MIC M. gall. with Cu” value (Table IVb) was 0.8 µg/mL.

As for `Nc1ccc2ccc3ccc(N)nc3c2n1` [E], under setting [1], the MIC is 50 µg/mL (≈ 238 µM). Besides, where the note is “Table IVb”, the “MIC M. gall. with Cu” value was 0.8 µg/mL.

Where the note is “Table I”, `Nc1nc(-c2ccccn2)cc2ccccc12.Nc1nc(-c2ccccn2)cc2ccccc12.O=[N+]([O-])[O-].O=[N+]([O-])[O-].[Cu+2]` [Example V, bis[1-amino-3-(2-pyridyl)isoquinoline]cupric nitrate] had an MIC of 3 µg/mL.

Turning to `Cl.Nc1nc(-c2ccccn2)cc2cc(Cl)ccc12` [Example VII, 1-amino-6-chloro-3-(2-pyridyl)isoquinoline hydrochloride], the “MIC with Cu” value (Table I) was 0.4 µg/mL.

`Cl.Nc1nc(-c2ccccn2)cc2cc(Br)ccc12` [Example X, 1-Amino-6-bromo-3-(2-pyridyl)isoquinoline hydrochloride]: under “Table I”, the “MIC with Cu” value was determined as 0.4 µg/mL.

On to `C=Cn1ccnc1-c1nc(N)c2ccccc2n1` [Example XVIIIa, 4-amino-2-(1-ethenyl-1H-imidazole-2-yl)quinazoline], for which, under setting [2], the MIC was over 100 µg/mL. The “MIC with Cu” value (Table I) was 0.2 µg/mL.

With `C=Cn1ccnc1-c1cc2ccccc2c(N)n1` [Example XVIIc, 1-amino-3-(1-ethenyl-1H-imidazole-2-yl) isoquinoline], under setting [2], the minimal inhibitory concentration (MIC) is over 100 µg/mL. Under “Table I”, the “MIC with Cu” value was 0.2 µg/mL.

As to `Nc1ccc2ccc3cccnc3c2n1` [F], the MIC under setting [1] was 25 µg/mL (≈ 128 µM). Also, for the setting “Table IVb”, the “MIC M. gall. with Cu” value came out at 0.8 µg/mL.

For the compound `COc1ccc2ccc3cccnc3c2n1` [G], the minimal inhibitory concentration (MIC) under setting [1] is over 100 µg/mL. Also, the “MIC M. gall. with Cu” value (Table IVb) was found to be 3 µg/mL.

Where the note is “Table I”, `Nc1nc(-c2ccccn2)cc2c(Cl)cccc12.Nc1nc(-c2ccccn2)cc2c(Cl)cccc12.O=[N+]([O-])[O-].[Cu+]` [IIa, Bis[1-amino-5-chloro-3-(2-pyridyl)isoquinoline]cuprous nitrate] registered an MIC of 1.5 µg/mL.

Regarding `Cc1ccc2cc(-c3ccccn3)nc(N)c2c1.Cc1ccc2cc(-c3ccccn3)nc(N)c2c1.O=[N+]([O-])[O-].[Cu+]` [IIb, Bis[1-amino-7-methyl-3-(2-pyridyl)isoquinoline]cuprous nitrate], the minimum inhibitory concentration (MIC) (Table I) is 6 µg/mL.

For `Nc1nc(-c2ccccn2)cc2ccccc12.Nc1nc(-c2ccccn2)cc2ccccc12.O=[N+]([O-])[O-].[Cu+]` [IIc, Bis[1-amino-3-(2-pyridyl)isoquinoline]cuprous nitrate], where the note is “Table I”, the “MIC with Cu” value was found to be 0.4 µg/mL and the minimal inhibitory concentration (MIC) amounted to 3 µg/mL.

Consider `O=[N+]([O-])[O-].[Cu+].c1cnc2c(c1)ccc1cccnc12.c1cnc2c(c1)ccc1cccnc12` [IId, Bis(1,10-phenanthroline)cuprous nitrate], for which, under “Table I”, the “MIC with Cu” value is 25 µg/mL and the minimal inhibitory concentration (MIC) turned out to be 12.5 µg/mL.

For the compound `Clc1ccc2ccc3ccc(Cl)nc3c2n1.Clc1ccc2ccc3ccc(Cl)nc3c2n1.O=[N+]([O-])[O-].[Cu+]` [IIe, Bis(2,9-dichloro-1,10-phenanthroline)cuprous nitrate], where the note is “Table I”, the MIC was 25 µg/mL.

Compound `Nc1nc(-c2ccccn2)cc2ccccc12.O=[N+]([O-])[O-].O=[N+]([O-])[O-].[Cu+2]` [IVa, Mono[1-amino-3-(2-pyridyl)isoquinoline]cupric nitrate] showed a minimum inhibitory concentration (MIC) (Table I) of 1.5 µg/mL.

Under “Table I”, `Nc1nc(-c2ccccn2)cc2c(Cl)cccc12.O=[N+]([O-])[O-].O=[N+]([O-])[O-].[Cu+2]` [IVb, Mono[1-amino-5-chloro-3-(2-pyridyl)isoquinoline]cupric nitrate] showed a minimum inhibitory concentration (MIC) of 0.8 µg/mL.

As for `Cc1cccc(-c2cc3ccccc3c(N)n2)n1.O=[N+]([O-])[O-].O=[N+]([O-])[O-].[Cu+2]` [IVc, Mono[1-amino-3-(6-methyl-2-pyridyl)isoquinoline]cupric nitrate], the minimal inhibitory concentration (MIC) (Table I) stood at 0.8 µg/mL.

Where the note is “Table I”, `Cc1cccc(-c2cc3ccccc3c(N)n2)n1.Cc1cccc(-c2cc3ccccc3c(N)n2)n1.O=[N+]([O-])[O-].O=[N+]([O-])[O-].[Cu+2]` [VI (2), bis[1-amino-3-(6-methyl-2-pyridyl)isoquinoline]cupric nitrate] showed a minimum inhibitory concentration (MIC) of 0.8 µg/mL.

For the compound `COc1cc2cc(-c3ccccn3)nc(N)c2cc1OC` [VIIIa], under setting [2], the MIC was 100 µg/mL (≈ 355 µM). Also, for the setting “Table I”, the “MIC with Cu” value stood at 12.5 µg/mL.

Regarding `Cc1cccc2c(N)nc(-c3ccccn3)cc12` [VIIIb], the minimum inhibitory concentration (MIC) under setting [2] worked out at 1.5 µg/mL (≈ 6.38 µM). The “MIC with Cu” value (Table I) turned out to be 0.2 µg/mL.

`Cc1ccc2c(N)nc(-c3ccccn3)cc2c1` [VIIIc]: the minimal inhibitory concentration (MIC) under setting [2] turned out to be 3 µg/mL (≈ 12.8 µM). Under “Table I”, the “MIC with Cu” value is 0.4 µg/mL.

Turning to `Cc1ccc2cc(-c3ccccn3)nc(N)c2c1` [VIIId], the minimal inhibitory concentration (MIC) under setting [2] was 1.5 µg/mL (≈ 6.38 µM). In addition, the “MIC with Cu” value (Table I) stood at 0.2 µg/mL.

With `Nc1nc(-c2ccccn2)cc2ccc(Cl)cc12` [VIIIi], the “MIC with Cu” value (Table I) was determined as 0.2 µg/mL.

`Nc1nc(-c2ccccn2)cc2cccc(Cl)c12` [VIIIj]: the minimal inhibitory concentration (MIC) under setting [2] was 100 µg/mL (≈ 391 µM). Also, the “MIC with Cu” value (Table I) turned out to be 0.2 µg/mL.

With `CCc1ccc2cc(-c3ccccn3)nc(N)c2c1` [VIIIk], the “MIC with Cu” value (Table I) amounted to 0.2 µg/mL.

Consider `Nc1nc(-c2ccccn2)cc2ccc(I)cc12` [VIIIl], for which, for the setting “Table I”, the “MIC with Cu” value is 0.2 µg/mL.

For the compound `CCCc1nc(-c2ccccn2)cc2ccccc12.Cl` [XIIIf, 1-propyl-3-(2-pyridyl)isoquinoline hydrochloride], where the note is “Table I”, the “MIC with Cu” value amounted to 0.03 µg/mL.

In the case of `Clc1nc(-c2ccccn2)cc2ccccc12` [XIIc (2), 1-chloro-3-(2-pyridyl)isoquinoline], the “MIC with Cu” value (Table I) was found to be 0.06 µg/mL.

Regarding `c1ccc(-c2nc(-c3ccccn3)cc3ccccc23)cc1` [XIVb, 1-phenyl-3-(2-pyridyl)isoquinoline], the “MIC with Cu” value (Table I) worked out at 0.2 µg/mL.

Consider `Nc1nc(-c2ncc[nH]2)cc2ccccc12.O=[N+]([O-])[O-].O=[N+]([O-])[O-].[Cu+2]` [XIXb (2), Mono[1-amino-3-(1H-imidazole-2-yl)isoquinoline]cupric nitrate], for which, for the setting “Table I”, the “MIC with Cu” value is 3 µg/mL and the minimal inhibitory concentration (MIC) turned out to be 50 µg/mL.

Turning to `Nc1nc(-c2ncc[nH]2)cc2ccccc12.Nc1nc(-c2ncc[nH]2)cc2ccccc12.O=[N+]([O-])[O-].O=[N+]([O-])[O-].[Cu+2]` [XIXb (3), Bis[1-amino-3-(1H-imidazole-2-yl)isoquinoline]cupric nitrate], where the note is “Table I”, the “MIC with Cu” value was found to be 3 µg/mL and the MIC was 50 µg/mL.

Consider `Cc1cccc(-c2cc3ccccc3c(Cl)n2)n1` [XIb, 1-Chloro-3-(6-methyl-2-pyridyl)isoquinoline], for which the “MIC with Cu” value (Table I) worked out at 1 µg/mL.

Take `Cc1cccc(-c2cc3ccccc3cn2)n1` [XIc, 3-(6-methyl-2-pyridyl)isoquinoline]: under “Table I”, the “MIC with Cu” value was determined as 0.1 µg/mL.

With `C=Cn1ccnc1-c1nc(N)c2ccccc2n1.C=Cn1ccnc1-c1nc(N)c2ccccc2n1.O=[N+]([O-])[O-].[Cu+]` [XVIIIb (1), Bis[4-amino-2-(1-ethenyl-1H-imidazole-2-yl)quinazoline]cuprous nitrate], where the note is “Table I”, the “MIC with Cu” value was 0.2 µg/mL and the minimal inhibitory concentration (MIC) is 12.5 µg/mL.

For `C=Cn1ccnc1-c1nc(N)c2ccccc2n1.O=[N+]([O-])[O-].O=[N+]([O-])[O-].[Cu+2]` [XVIIIb (2), Mono[4-amino-2-(1-ethenyl-1H-imidazole-2-yl)quinazoline]cupric nitrate], where the note is “Table I”, the “MIC with Cu” value was found to be 0.2 µg/mL and the MIC is 6 µg/mL.

As to `C=Cn1ccnc1-c1nc(N)c2ccccc2n1.C=Cn1ccnc1-c1nc(N)c2ccccc2n1.O=[N+]([O-])[O-].O=[N+]([O-])[O-].[Cu+2]` [XVIIIb (3), Bis[4-amino-2-(1-ethenyl-1H-imidazole-2-yl)quinazoline]cupric nitrate], where the note is “Table I”, the “MIC with Cu” value amounted to 0.2 µg/mL and the MIC was 12.5 µg/mL.

As for `C=Cn1ccnc1-c1cc2ccccc2c(N)n1.C=Cn1ccnc1-c1cc2ccccc2c(N)n1.O=[N+]([O-])[O-].[Cu+]` [XVIId (1), Bis[1-amino-3-(1-ethenyl-1H-imidazole-2-yl)isoquinoline]cuprous nitrate], for the setting “Table I”, the “MIC with Cu” value was determined as 0.2 µg/mL and the MIC was determined as 25 µg/mL.

Consider `C=Cn1ccnc1-c1cc2ccccc2c(N)n1.O=[N+]([O-])[O-].O=[N+]([O-])[O-].[Cu+2]` [XVIId (2), Mono[1-amino-3-(1-ethenyl-1H-imidazole-2-yl)isoquinoline]cupric nitrate], for which, for the setting “Table I”, the “MIC with Cu” value stood at 0.2 µg/mL and the MIC worked out at 12.5 µg/mL.

Regarding `C=Cn1ccnc1-c1cc2ccccc2c(N)n1.C=Cn1ccnc1-c1cc2ccccc2c(N)n1.O=[N+]([O-])[O-].O=[N+]([O-])[O-].[Cu+2]` [XVIId (3), Bis[1-amino-3-(1-ethenyl-1H-imidazole-2-yl)isoquinoline]cupric nitrate], under “Table I”, the “MIC with Cu” value is 0.2 µg/mL and the minimum inhibitory concentration (MIC) amounted to 12.5 µg/mL.

Turning to `Cn1ccnc1-c1nc(N)c2ccccc2n1` [XVIa, 4-amino-2-(1-methyl-1H-imidazole-2-yl)quinazoline], the MIC under setting [2] amounted to 25 µg/mL (≈ 111 µM). Further, the “MIC with Cu” value (Table I) came to 0.2 µg/mL.

As for `Cn1ccnc1-c1nc(N)c2ccccc2n1.Cn1ccnc1-c1nc(N)c2ccccc2n1.O=[N+]([O-])[O-].[Cu+]` [XVIb (1), Bis[4-amino-2-(1-methyl-1H-imidazole-2-yl)quinazoline]cuprous nitrate], where the note is “Table I”, the “MIC with Cu” value worked out at 0.2 µg/mL and the minimum inhibitory concentration (MIC) was 6 µg/mL.

In the case of `Cn1ccnc1-c1nc(N)c2ccccc2n1.O=[N+]([O-])[O-].O=[N+]([O-])[O-].[Cu+2]` [XVIb (2), Mono[4-amino-2-(1-methyl-1H-imidazole-2-yl)quinazoline]cupric nitrate], where the note is “Table I”, the “MIC with Cu” value came out at 0.4 µg/mL and the MIC turned out to be 6 µg/mL.

For orientation: MIC means the lowest concentration found to suppress growth.
